Results reported in patent US20220145406A1, “BIOMARKERS, AND USES IN TREATMENT OF VIRAL INFECTIONS, INFLAMMATIONS, OR CANCER” (ABIVAX, priority 2018, published 2022).

Test system: miR-124
Assay: miR-124 (RT-q)PCR in PBMCs, CD4+ and CD8+ T cells, macrophages
Type: cell-based, human
Conditions: PBMCs treated with antiretrovirals
Protocol: Buffy coats from HIV-negative individuals were obtained from the local blood donation center in Centre de transfusion sanguine Montpellier. Human peripheral blood mononuclear cells (PBMCs) were isolated by Ficoll (Histopaque, Sigma) gradient centrifugation. CD4+ and CD8+ T cells were purified from PBMCs after Ficoll gradient centrifugation by Human CD4+ beads positive selection and CD8+ beads positive selection, respectively (Miltenyi). PBMCs, CD4+ and CD8+ T cells were grown at 37° C. and 5% CO2 to a density of 1.5×10^6 cells/ml in RPMI GlutaMAX medium (Life Technologies) supplemented with 10% fetal calf serum (FCS) (Thermo Fisher), 40 U/ml of IL2 (PeproTech) and 5 μg/mL of PHA (Roche) for 2 days. Three days later, cells were resuspended at 1.5×10^6 cells/ml in RPMI supplemented with 10% FCS and 40 U/ml IL2 and separated into two parts (infected and uninfected cells). Cells were infected with 80 ng of p24/106 cells of the YU-2 strain for 4 to 6 hours and then rinsed with PBS before medium renewal.
Both infected and uninfected cells were then centrifuged and resuspended to a density of 1.5×10^6 cells/ml in medium supplemented with diluted drug solubilized in DMSO (Sigma) to a final 0.05% DMSO concentration or antiretroviral compounds according to the manufacturer's instructions. Cells were treated for 6 days with a medium renewal at day 3. HIV p24 titration was performed by ELISA from cell culture supernatants with Innotest kit (Ingen) according to the manufacturer's instructions.
To generate monocyte-derived macrophages, monocytes were isolated using CD14+ positive microbeads (Miltenyi) and cultured in X-VIVO 10 medium (Lonza) supplemented with 10 mM HEPES, 1 mM sodium pyruvate, 1% non-essential amino acids, 10% FBS, 10 ng/ml GM-CSF and 100 ng/ml M-CSF for 7 days with medium renewal at day 3. After 7 days of differentiation, the cells were washed, plated in 6-well plates and incubated for 24 hours in medium without cytokine addition. Cells were treated for 6 days with a partial medium change at day 3.
miRNAs were extracted from PBMCs, CD4+ or CD8+ T cells using the NucleoSpin miRNeasy kit (Macherey-Nagel) according to the manufacturer's instructions. miRNA reverse transcription (RT) was performed using the miScript II RT kit (Qiagen). […] The relative levels of miR-124 were calculated using the 2^−ΔΔCt method.
Total RNA was extracted from macrophages using the Macherey-Nagel NucleoSpin miRNeasy kit. miRNA reverse transcription (RT) was performed on 2 μl of total RNA according to the Applied Biosystems TaqMan Advanced miRNA assays protocol for TaqMan qPCR. […] PCR runs were analyzed with Applied Biosystems ViiA 7 software.

Row | Molecule | miR-124 expression compared to untreated cells (DMSO)
1 | CC(C)CN(C[C@@H](O)[C@H](Cc1ccccc1)NC(=O)O[C@H]1CO[C@H]2OCC[C@H]21)S(=O)(=O)c1ccc(N)cc1 [darunavir] | did not upregulate
2 | maraviroc | did not upregulate
3 | O=C1Nc2ccc(Cl)cc2[C@@](C#CC2CC2)(C(F)(F)F)O1 [efavirenz] | did not upregulate
4 | Cc1cn([C@H]2C[C@H](N=[N+]=[N-])[C@@H](CO)O2)c(=O)[nH]c1=O [AZT] | did not upregulate
